Laboratory results as given in US7659404B2, “Broad spectrum 2-(substituted-amino)-benzothiazole sulfonamide HIV protease inhibitors” (Tibotec Pharmaceuticals Ltd., priority 2001, dated 2010).

Columns and labels:
[1] = test system: clinically isolated HIV strain Q; assay: Antiviral spectrum, cellular assay (fold resistance), strain Q; type: cell-based; settings: FR=EC50(mutant strain)/EC50(HIV-1 strain LAI)
Protocol: (§1) HIV- or mock-infected MT4 cells were incubated for five days in the presence of various concentrations of the inhibitor. At the end of the incubation period, all HIV-infected cells have been killed by the replicating virus in the control cultures in the absence of any inhibitor. Cell viability is measured by measuring the concentration of MTT, a yellow, water soluble tetrazolium dye that is converted to a purple, water insoluble formazan in the mitochondria of living cells only. Upon solubilization of the resulting formazan crystals with isopropanol, the absorbance of the solution is monitored at 540 nm. The values correlate directly to the number of living cells remaining in the culture at the completion of the five day incubation. The inhibitory activity of the compound was monitored on the virus-infected cells and was expressed as EC50 and EC90. These values represent the amount of the compound required to protect 50% and 90%, respectively, of the cells from the cytopathogenic effect of the virus. The toxicity of the compound was measured on the mock-infected cells and was expressed as CC50, which represents the concentration of compound required to inhibit the growth of the cells by 50%. The selectivity index (SI) (ratio CC50/EC50) is an indication of the selectivity of the anti-HIV activity of the inhibitor.
(§2) Because of the increasing emergence of drug resistant HIV strains, the present compounds were tested for their potency against clinically isolated HIV strains harboring several mutations. These mutations are associated with resistance to protease inhibitors and result in viruses that show various degrees of phenotypic cross-resistance to the currently commercially available drugs such as for instance saquinavir, ritonavir, nelfinavir, indinavir and amprenavir.
(§3) As a measure of the broad spectrum activity of the present compounds, the fold resistance (FR) defined as FR=EC50(mutant strain)/EC50(HIV-1 strain LAI).

[2] = test system: clinically isolated HIV strain B; assay: Antiviral spectrum, cellular assay (fold resistance), strain B; type: cell-based; settings: FR=EC50(mutant strain)/EC50(HIV-1 strain LAI)
Protocol: as §1, §2, §3

[3] = test system: clinically isolated HIV strain C; assay: Antiviral spectrum, cellular assay (fold resistance), strain C; type: cell-based; settings: FR=EC50(mutant strain)/EC50(HIV-1 strain LAI)
Protocol: as §1, §2, §3

[4] = test system: clinically isolated HIV strain K; assay: Antiviral spectrum, cellular assay (fold resistance), strain K; type: cell-based; settings: FR=EC50(mutant strain)/EC50(HIV-1 strain LAI)
Protocol: as §1, §2, §3

virus strain F (R13025) = assay: microbe, parasite or virus in culture; type: cell-based, HIV; settings: FR=EC50(mutant strain)/EC50(HIV-1 strain LAI); strain F
Method in brief: (§4)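 Anti-HIV activity against multiply mutated clinical isolates is measured in MT4 cells over a five-day incubation, using MTT viability (540 nm) as a proxy for protection from viral cytopathicity. Values are reported as EC50 or as fold change versus the LAI reference strain.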

virus strain S (R13080) = assay: microbe, parasite or virus in culture; type: cell-based, HIV; settings: FR=EC50(mutant strain)/EC50(HIV-1 strain LAI); strain S
Method in brief: as §4

[5] = test system: clinically isolated HIV strain D; assay: Antiviral spectrum, cellular assay (fold resistance), strain D; type: cell-based; settings: FR=EC50(mutant strain)/EC50(HIV-1 strain LAI)
Protocol: as §1, §2, §3

[6] = test system: clinically isolated HIV strain M; assay: Antiviral spectrum, cellular assay (fold resistance), strain M; type: cell-based; settings: FR=EC50(mutant strain)/EC50(HIV-1 strain LAI)
Protocol: as §1, §2, §3

HIV-1 strain LAI = assay: Cellular anti-HIV assay in MT4 cells (MTT), wild type laboratory strain; type: cell-based; settings: Human immunodeficiency virus 1, 120 h; MT4 cells, five days, MTT; read-out: EC50 value against HIV-1 strain LAI
Protocol: The compounds of the present invention were examined for anti-viral activity in a cellular assay. […] The cellular assay was performed according to the following procedure.
Cellular Assay Experimental Method:
as §1

[7] = test system: clinically isolated HIV strain R; assay: Antiviral spectrum, cellular assay (fold resistance), strain R; type: cell-based; settings: FR=EC50(mutant strain)/EC50(HIV-1 strain LAI)
Protocol: as §1, §2, §3

[8] = test system: clinically isolated HIV strain J; type: cell-based; settings: FR=EC50(mutant strain)/EC50(HIV-1 strain LAI)
Method in brief: as §4

[9] = test system: clinically isolated HIV strain T; type: cell-based; settings: FR=EC50(mutant strain)/EC50(HIV-1 strain LAI)
Method in brief: as §4

[10] = test system: clinically isolated HIV strain H; type: cell-based; settings: FR=EC50(mutant strain)/EC50(HIV-1 strain LAI)
Method in brief: as §4

[11] = test system: clinically isolated HIV strain O; type: cell-based; settings: FR=EC50(mutant strain)/EC50(HIV-1 strain LAI)
Method in brief: as §4

[12] = test system: clinically isolated HIV strain I; type: cell-based; settings: FR=EC50(mutant strain)/EC50(HIV-1 strain LAI)
Method in brief: as §4

[13] = test system: clinically isolated HIV strain A; assay: Antiviral spectrum, cellular assay (fold resistance), strain A; type: cell-based; settings: FR=EC50(mutant strain)/EC50(HIV-1 strain LAI)
Protocol: as §1, §2, §3

[14] = test system: clinically isolated HIV strain P; assay: Antiviral spectrum, cellular assay (fold resistance), strain P; type: cell-based; settings: FR=EC50(mutant strain)/EC50(HIV-1 strain LAI)
Protocol: as §1, §2, §3

[15] = test system: clinically isolated HIV strain N; assay: Antiviral spectrum, cellular assay (fold resistance), strain N; type: cell-based; settings: FR=EC50(mutant strain)/EC50(HIV-1 strain LAI)
Protocol: as §1, §2, §3

[16] = test system: clinically isolated HIV strain G; assay: Antiviral spectrum, cellular assay (fold resistance), strain G; type: cell-based; settings: FR=EC50(mutant strain)/EC50(HIV-1 strain LAI)
Protocol: as §1, §2, §3

[17] = test system: clinically isolated HIV strain E; assay: Antiviral spectrum, cellular assay (fold resistance), strain E; type: cell-based; settings: FR=EC50(mutant strain)/EC50(HIV-1 strain LAI)
Protocol: as §1, §2, §3

[18] = test system: clinically isolated HIV strain L; assay: Antiviral spectrum, cellular assay (fold resistance), strain L; type: cell-based; settings: FR=EC50(mutant strain)/EC50(HIV-1 strain LAI)
Protocol: as §1, §2, §3

SMILES	fold resistance (FR), strain Q [1]	fold resistance (FR), strain B [2]	fold resistance (FR), strain C [3]	fold resistance (FR), strain K [4]	fold resistance (FR), strain F (virus strain F (R13025))	fold resistance (FR), strain S (virus strain S (R13080))	fold resistance (FR), strain D [5]	fold resistance (FR), strain M [6]	EC50 (HIV-1 strain LAI) [nM]	fold resistance (FR), strain R [7]	fold resistance (FR), strain J [8]	fold resistance (FR), strain T [9]	fold resistance (FR), strain H [10]	fold resistance (FR), strain O [11]	fold resistance (FR), strain I [12]	fold resistance (FR), strain A [13]	fold resistance (FR), strain P [14]	fold resistance (FR), strain N [15]	fold resistance (FR), strain G [16]	fold resistance (FR), strain E [17]	further results
CCOC(=O)Nc1nc2ccc(S(=O)(=O)N(CC(C)C)CC(O)C(Cc3ccccc3)NC(=O)OC3COC4OCCC34)cc2s1 (stereo not drawn) [Compound 2]	0.3	0.2	0.2	0.2	1.1	1.7	0.3	0.3	< 50	0.3	0.4	29.6	1.0	0.8	0.7	0.3	0.2	1.1	0.2	0.4	fold resistance (FR), strain L [18]: 0.2
CC(C)CN(CC(O)C(Cc1ccccc1)NC(=O)OC1COC2OCCC12)S(=O)(=O)c1ccc2nc(NC(=O)CN3CCCC3)sc2c1 (stereo not drawn) [Compound 12]	0.4	0.4	0.3	0.2	0.4	0.8	0.4	0.2	< 50	0.4	0.3	5.9	0.4	0.4	0.4	0.3	0.1	0.4	0.2	0.4	fold resistance (FR), strain L [18]: 0.1
CC(C)CN(C[C@@H](O)[C@H](Cc1ccccc1)NC(=O)O[C@H]1CO[C@H]2OCC[C@H]21)S(=O)(=O)c1ccc2nc(NCCN(C)C)sc2c1 [Compound 16]	0.2	0.3	0.2	0.2	0.4	1.6	0.2	0.2	< 50	0.2	0.3	6.6	0.3	0.3	0.3	0.2	0.1	0.4	0.2	0.3	fold resistance (FR), strain L [18]: 0.1
